Test results published in article PMC11300601, “Zurletrectinib is a next-generation TRK inhibitor with strong intracranial activity against NTRK fusion-positive tumours with on-target resistance to first-generation agents” (British Journal of Cancer, 2024).

What was measured:
[1] = tested on: IRC LMNA-NTRK1 TRKA G595R; test: Proliferation, clonogenic and western blot assays, primary IRC cell line with TRKA G595R; type: cell-based; conditions: primary human NTRK fusion-positive cell line with TRKA G595R
Excerpt: NTRK fusion-positive colorectal cancer cell lines IRC, Kor1, and KM12 were utilized. The IRC and the KM12 cell lines were obtained from Dr. Bardelli and cultured according to the described protocols. The Kor1 cell line was obtained from Lee et al. and cultured on laminin pre-treated plates in RPMI media supplemented with 10% Fetal Bovine Serum (FBS). All cell lines were authenticated by STR and periodically screened for the presence of mycoplasma. For the mutant models, two human-derived colorectal cancer cell lines (IRC) and two mouse-derived glioma models (NLS) were used. […] Sequencing of the double mutant cell line was performed using MSK-IMPACT [25]. IRC primary cell lines were cultured with DMEM/F12 50:50 Mix (Corning) supplemented with 10% FBS. NLS Bcan-Ntrk1 Trka G598R and Bcan-Ntrk1 Trka G670C single mutants as well as double mutants NLS Bcan-Ntrk1 Trka G598R/G670A and NLS Bcan-Ntrk1 Trka G598R/G670C isogenic models were established using CRISPR/Cas9 to knock-in TRKA solvent-front and xDFG mutations into tumor cells derived from a Bcan-Ntrk1-driven glioma mouse model. […]
CellTiter-Glo Cell Viability Assays (Promega) and crystal violet clonogenic assays were performed on primary NTRK fusion-positive colorectal cancer cell lines, mouse Ba/F3 cell lines and isogenic mouse glioma cell lines. […] Absorbance was read at 490 nm in accordance with Promega’s protocol. […]

[2] = tested on: Bcan-Ntrk1 Trka G598R/G670A; test: Proliferation and clonogenic assays, mouse glioma cell line; type: cell-based
Excerpt: (§1) NTRK fusion-positive colorectal cancer cell lines IRC, Kor1, and KM12 were utilized. The IRC and the KM12 cell lines were obtained from Dr. Bardelli and cultured according to the described protocols. The Kor1 cell line was obtained from Lee et al. and cultured on laminin pre-treated plates in RPMI media supplemented with 10% Fetal Bovine Serum (FBS). All cell lines were authenticated by STR and periodically screened for the presence of mycoplasma. For the mutant models, two human-derived colorectal cancer cell lines (IRC) and two mouse-derived glioma models (NLS) were used. […] Sequencing of the double mutant cell line was performed using MSK-IMPACT [25]. IRC primary cell lines were cultured with DMEM/F12 50:50 Mix (Corning) supplemented with 10% FBS. NLS Bcan-Ntrk1 Trka G598R and Bcan-Ntrk1 Trka G670C single mutants as well as double mutants NLS Bcan-Ntrk1 Trka G598R/G670A and NLS Bcan-Ntrk1 Trka G598R/G670C isogenic models were established using CRISPR/Cas9 to knock-in TRKA solvent-front and xDFG mutations into tumor cells derived from a Bcan-Ntrk1-driven glioma mouse model. Trka G598R is the mouse ortholog to human TRKA G595R while Trka G670A and Trka G670C are the mouse ortholog to human TRKA G667A and TRKA G667C, respectively. Mouse p53 ^−/^− Bcan-Ntrk1 glioma cells were plated on laminin-coated plates and cultured with Neurocult Stem Cell Basal Media with Proliferation Supplements (Stem Cell Technologies). Ba/F3 cell lines stably expressing WT and mutant versions (i.e. G595R, G667C/A, V573M, F589L, F633L, F617L, G623R/E, G639R, G696A/C, G709C, V608D/M) of human TRKA, TRKB or TRKC were generated using either lentiviral transduction or standard transfection methods by a contract research organization (Kyinno, Beijing, China).
(§2) CellTiter-Glo Cell Viability Assays (Promega) and crystal violet clonogenic assays were performed on primary NTRK fusion-positive colorectal cancer cell lines, mouse Ba/F3 cell lines and isogenic mouse glioma cell lines. For the CellTiter-Glo assays, three biological replicates were performed, with each condition being assayed in triplicate determinations. Cells were seeded in a 96-well plate in the afternoon at optimal density. […] Plates were removed from the incubator 72 h later and CellTiter-Glo reagent was added. Absorbance was read at 490 nm in accordance with Promega’s protocol. Data is presented as a survival percentage on the y-axis (mean ± STDEV) normalized to the control DMSO-treated cells deemed 100% viable. Drug concentrations on the x-axis are represented as a base 10 logarithm (LOG). For the crystal violet assays, cells were seeded in a 24-well plate at optimal densities in the afternoon. […]

Bcan-Ntrk1 Trka G598R = test: as above; type: cell-based
Excerpt: as §1, §2

[3] = tested on: Bcan-Ntrk1 Trka G598R/G670C; test: as above; type: cell-based
Excerpt: as §1
as §2, with “(LOG).” for “(LOG). For the crystal violet assays, cells were seeded in a 24-well plate at optimal densities in the afternoon.”
(§3) I n vi t r o kinase assay, crystal violet, and western blot quantifications
(§4) In vitro kinase assay quantification was performed using GraphPad Prism 9.

Bcan-Ntrk1 Trka G670C = test: as above; type: cell-based
Excerpt: as §1
as §2, with “(LOG).” for “(LOG). For the crystal violet assays, cells were seeded in a 24-well plate at optimal densities in the afternoon.”
as §3, §4

KM12 xenografts = test: KM12 subcutaneous xenograft efficacy study; type: in vivo, BALB/c nude female mice; conditions: 30 mg/kg BID versus 1 mg/kg BID zurletrectinib, oral
Method: KM12 and Ba/F3 LMNA-NTRK1, TRKA G595R xenografts were generated by subcutaneous injection of five and six million cells into the right flank of 6–8 weeks old BALB/c nude female mice, respectively. Treatment with zurletrectinib, selitrectinib and larotrectinib started at tumor reaching around 150 mm^3. Xenografts were randomized into different groups (8 mice per group) based on tumor size and dosed orally with zurletrectinib (0.1, 0.3, 1 mg/kg BID for KM12 models and 0.3, 1, 3 mg/kg BID for Ba/F3 models), selitrectinib (30 mg kg^−1 BID per day) and larotrectinib (30 mg kg^−1 BID) for constant 10 days or 23 days for KM12 or Ba/F3 models, respectively. Eight mice per group were included in each experiment. Randomization was conducted without utilizing a blind method. Tumors were measured twice weekly using calipers and body weight was also assessed twice weekly. At the end of each treatment, animals were euthanized. The vehicles were formulated as follows: were first dissolved in Cremophor EL/ethanol (50:50) as a 4× stock solution, vortexed, sonicated and then diluted to a 1× solution with saline before use.

Row | Molecule | Inhibition of growth and TRKA-mediated signaling [1] | Activity against mouse glioma cell line [2] | Activity against mouse glioma cell line (Bcan-Ntrk1 Trka G598R) | Activity against mouse glioma cell line [3] | Activity against mouse glioma cell line (Bcan-Ntrk1 Trka G670C) | Fold higher dose necessary to achieve the same effect on tumor growth inhibition observed with zurletrectinib (KM12 xenografts) [fold]
1 | C[C@@H]1CCc2ncc(F)cc2[C@H]2CCCN2c2ccn3ncc(c3n2)C(=O)N1 [Selitrectinib, selitrectinib] | able to inhibit the growth and TRKA-mediated signaling | highly active | highly active | less so | less so | 30
2 | O=C(Nc1cnn2ccc(N3CCC[C@@H]3c3cc(F)ccc3F)nc12)N1CC[C@H](O)C1 [Larotrectinib, larotrectinib] | – | – | – | – | – | 30
3 | zurletrectinib | able to inhibit the growth and TRKA-mediated signaling | highly active | highly active | less so | less so | –
